The subject of one data set is HIV-1. The data set can be described thus: C8166 HIV-1 Luciferase Assay (EC50). Conditions: Human immunodeficiency virus 1, C8166, 72 h. It is filed as cell-based. How it is done:
C8166 HIV-1 Luciferase Assay (Ec50)
The assay used to measure inhibition of HIV replication is as described in WO 2004/050643, pages 73-75, incorporated herein by reference, with the following modifications:
Serial dilutions of HIV-1 inhibitors are prepared in complete media from DMSO stock solutions. Eleven serial dilutions of desired concentration are prepared in a 1 mL deep well titer plate (96 wells). The 12th well contains complete media with no inhibitor and serves as the positive control. All samples contain the same concentration of DMSO (<0.1% DMSO). Inhibitor is added, to triplicate wells, of a 96 well tissue culture treated clear view black microtiter plate (Corning Costar catalogue #3904). The total volume per well is 200 μL of media containing the cells and inhibitor. The last row is reserved for uninfected C8166 LTRIuc cells to serve as the background blank control and the first row is media alone.
Count C8166 LTRIuc cells and place in a minimal volume of complete RPMI 1640 in a tissue culture flask (ex. 30×10^6 cells in 10 mL media/25 cm^2 flask). Infect cells with HIV-1 at a moi of 0.005. Incubate cells for 1.5 h at 37° C. on a rotating rack in a 5% CO2 incubator. Resuspend cells in complete RPMI to give a final concentration of 25,000-cells/well. Add cells to wells of 96 well microtiter plate containing inhibitors. Add 25,000 uninfected C8166-LTRIuc cells/well in 200 μL complete RPMI to last row for background control. Incubate cells at 37° C. in 5% CO2 incubator for 3 days.
50 μL Steady Glo (luciferase substrate T112=5 hours Promega catalogue # E2520) is added to each well of the 96 well plate. The relative light units (RLU) of luciferase are determined using a luminescence plate reader. The calculated % inhibition values are used to determine EC50, slope factor (n) and maximum inhibition (Imax).

A short description of data set [1]: Caco-2 Permeability Assay. It is filed as in vitro ADME. Conditions: human, apparent permeability A to B, compound at 10 μM, apical buffer pH 6.0, basolateral buffer pH 7.4, read-out: Papp (cm/sec, *10^−6). From the text: Caco-2 Permeability Assay Caco-2 cells are purchased from Cell Culture Services as frozen instant cells at a concentration of 1*10^7 cells/vial. DMEM+glutamax-I culture media is purchased from Gibco (10569). Fetal bovine serum (FBS) is purchased from HyClone (SH30396.03). Pennicilin/Streptomycin antibiotics are purchased from Gibco (15140). MEM non-essential amino acids are purchased from Gibco (11140). Hank's balanced salt solution (HBSS) is purchased from Gibco (14025). Bovine serum albumin (BSA) is purchased from Sigma-Aldrich (A7906). MES low moisture is purchased from Sigma-Aldrich (M3671). HEPES is purchased from Sigma-Aldrich (H3375). Dimethyl Sulfoxide (DMSO) is purchased from EMD (MX1457-6). Complete DMEM media is prepared by adding 1 L of FBS, 100 mL of pen/strep and 110 mL of MEM non essential amino acids to 10 L of DMEM+glutamax-I. […] Caco-2 cells are seeded on HTS transwell 24-well plates purchased from Corning (3397). These polycarbonate membrane plates have a diameter of […] and pore size of 0.4 μm. The Caco-2 cells vial is thawed in a 37° C. water bath until only a small ice pellet is left. The vial is then transferred to the laminar flow hood and its exterior is extensively washed with 70% ethanol. The total content of the vial (2 mL) is transferred into a 50 mL tube containing 38 mL of complete DMEM. […] The seeding is done by the Hamilton star robotic station which is controlled with the Venus program. Each well will receive 600 μL of complete DMEM on its basolateral side and 200 μL of cells on its apical side. Each well receives 50 000 cells. The 24-well plates are then returned to an automated Liconic STX110 incubator set at 37° C., 5% CO2 and 100% humidity. The culture media for the cells is changed every two days except on weekends. These cells are maintained for a period of two weeks prior to the running of the permeability assay. Permeability assays are usually performed between day 15 and 18 after the initial seeding. […] Controls for the assay are mannitol for tight junction determination and Digoxin for efflux transporter (p-glycoprotein) expression. On the day of the assay, each compound is diluted to 10 μM in the buffer (apical for A to B). 6 μl of the 5 mM DMSO stock is added to 3 mL of the buffer in a 24-well 10 mL deep plate covered with a lid. The plate containing all the diluted compounds is spun for 10 min at 3000 rpm in a Rotanta 46 RSC centrifuge from Hettich to remove unsoluble compound. This dilution is used to add at the start of the incubation. Each compound is tested in duplicate. On the day of the assay, the culture media of the 24-well plate is removed and replaced with warm HBSS. The HBSS is then also removed and the Apical and Basolatral buffer are added to their respective side of the transwells. These steps are performed by the Hamilton Star robotic station. The plate is then placed in a 37° C. incubator and is left to equilibrate for 30 min. After 30 min of incubation a background sample (25 μL from each well) is taken from the receiver side (Basolateral for A to B), and replenished with warm buffer. These samples and all others afterwards are kept in a 96-well 1 mL plate. To start the assay, the donor compartment (apical for A to B) is emptied and replaced with new buffer containing the compound at 10 μM. Once the compounds are added, the plate is returned to the 37° C. incubator and the timer is started. In order to determine how much compound is actually added to each well, a 50 μL sample is taken from each compound dilution, this sample is refered to as the load. These steps and the following are performed by the Tecan Freedom EVO robotic station controlled via the Gemini software. For A-to-B Assay: Samples (190 μL) are taken from each basolateral (receiver) chamber at time points 0, 60, 120 and 180 min or at time points 0, 30, 60 and 90 min. From the 190 μL taken, 50 μL is transferred to the receiving plate and 140 μL is discarded.

As to `CC[C@H]1C[C@@H](n2c(=O)nc(-c3cnn(C)c3)c3oc4c(C)nc(-c5cnn(C)c5)cc4c32)CCO1` [Compound 1082], in the data set with HIV-1, it took 3.3 nM to reach a half-maximal effect (EC50). In data set [1], the Papp A→B at 10 μM was 18.9 ×10⁻⁶ cm/s.
Turning to `CC[C@H]1C[C@@H](n2c(=O)nc(-c3cnn(C)c3)c3oc4ncc(-c5cccnc5)cc4c32)CCO1` [Compound 1083], in the data set on HIV-1, the midpoint of the response, the EC50, lay at 41 nM. Moreover, the Papp A→B at 10 μM in data set [1] was 12.5 ×10⁻⁶ cm/s.
For the molecule `C[C@@H]1C[C@H](n2c(=O)nc(-c3cnn(C)c3)c3oc4cnc(-c5cnn(C)c5)cc4c32)C[C@H](C)O1` [Compound 1084], it took 120 nM to reach a half-maximal effect in the data set with HIV-1 (EC50). Besides, in data set [1], the Papp A→B at 10 μM worked out at 20.5 ×10⁻⁶ cm/s.
Consider `CC[C@H]1C[C@@H](n2c(=O)nc(-c3cnn(C)c3)c3oc4cnc(-c5cnn(CCOC)c5)cc4c32)CCO1` [Compound 1085], for which the 50% effective concentration (EC50) in the data set with HIV-1 was 120 nM. For the same molecule, the Papp A→B at 10 μM in data set [1] stood at 19.2 ×10⁻⁶ cm/s.
Molecule `CC[C@@H]1C[C@H](n2c(=O)nc(-c3cnn(C)c3)c3oc4cnc(-c5cccnc5)cc4c32)CCO1` [Compound 1086] had an EC50 in the data set on HIV-1 of 18 nM. Besides, the Papp A→B at 10 μM in data set [1] amounted to 22.5 ×10⁻⁶ cm/s.
Turning to `CC[C@H]1C[C@@H](n2c(=O)nc(-c3cnn(C)c3)c3oc4cnc(-c5cnn(C)c5)cc4c32)CCCO1` [Compound 1087], the midpoint of the response in the data set on HIV-1, the EC50, lay at 9.7 nM. The Papp A→B at 10 μM in data set [1] turned out to be 23.1 ×10⁻⁶ cm/s.
Take `CC[C@H]1C[C@@H](n2c(=O)nc(-c3cnn(C)c3)c3oc4cnc(-c5cnc(C)o5)cc4c32)CCO1` [Compound 1088]: the EC50 in the data set with HIV-1 came to 36.2 nM. The Papp A→B at 10 μM in data set [1] amounted to 22.9 ×10⁻⁶ cm/s.
As to `CC[C@H]1C[C@@H](n2c(=O)nc(-c3cnn(C)c3)c3oc4cnc(-c5cnco5)cc4c32)CCO1` [Compound 1089], in the data set on HIV-1, a half-maximal effect (EC50) was put at 30 nM. Also, the Papp A→B at 10 μM in data set [1] is 18.6 ×10⁻⁶ cm/s.
For `CC[C@H]1C[C@@H](n2c(=O)nc(-c3cnn(C)c3)c3oc4cnc(-n5ccnc5)cc4c32)CCO1` [Compound 1090] the same measures were 160 nM and 8.7 ×10⁻⁶ cm/s.
For `CC[C@H]1C[C@@H](n2c(=O)nc(-c3cnn(C)c3)c3oc4ccc(-c5cn(C)cn5)cc4c32)CCO1` [Compound 1091] the same measures were 15.4 nM and 7.9 ×10⁻⁶ cm/s.
Turning to `CC[C@H]1C[C@@H](n2c(=O)nc(-c3cnn(C)c3)c3oc4cc(C#N)c(-c5cn(C)cn5)cc4c32)CCO1` [Compound 1094], the EC50 with HIV-1 was found to be 9.1 nM. In addition, the Papp A→B at 10 μM in data set [1] stood at 8.3 ×10⁻⁶ cm/s.
Consider `CC[C@H]1C[C@@H](n2c(=O)nc(-c3cnn(C)c3)c3oc4ccc(-c5cn(C)cn5)nc4c32)C[C@@H](C)O1` [Compound 1095], for which, in the data set on HIV-1, the response was half-maximal at 8.6 nM (EC50). The Papp A→B at 10 μM in data set [1] was found to be 39.8 ×10⁻⁶ cm/s.
On to `CC[C@H]1C[C@@H](n2c(=O)nc(-c3cnn(C)c3)c3oc4c(F)cc(-c5cn(C)cn5)cc4c32)CCO1` [Compound 1097], for which it took 3.9 nM to reach a half-maximal effect in the data set on HIV-1 (EC50). Besides, the Papp A→B at 10 μM in data set [1] was 37.1 ×10⁻⁶ cm/s.
As for `CC[C@H]1C[C@@H](n2c(=O)nc(-c3cnn(C)c3)c3oc4c(C#N)cc(-c5cn(C)cn5)cc4c32)CCO1` [Compound 1098], the EC50 in the data set with HIV-1 was determined as 9.9 nM. Moreover, the Papp A→B at 10 μM in data set [1] was 5.3 ×10⁻⁶ cm/s.
`CC[C@H]1C[C@@H](n2c(=O)nc(-c3ccc(OC)nc3)c3oc4ccc(-c5cn(C)cn5)nc4c32)CCO1` [Compound 1100] gave an EC50 in the data set with HIV-1 of 6.2 nM. Also, the Papp A→B at 10 μM in data set [1] was 29.3 ×10⁻⁶ cm/s.
`CC[C@H]1C[C@@H](n2c(=O)nc(-c3ccc(OC)cn3)c3oc4ccc(-c5cn(C)cn5)nc4c32)CCO1` [Compound 1101] showed an EC50 in the data set with HIV-1 of 17 nM. Further, the Papp A→B at 10 μM in data set [1] turned out to be 32 ×10⁻⁶ cm/s.
In turn, `CC[C@H]1C[C@@H](n2c(=O)nc(-c3ccccn3)c3oc4ccc(-c5cn(C)cn5)nc4c32)CCO1` [Compound 1102] yielded an EC50 with HIV-1 of 57 nM. Moreover, the Papp A→B at 10 μM in data set [1] worked out at 24.6 ×10⁻⁶ cm/s.
As for `CC[C@H]1C[C@@H](n2c(=O)nc(-c3cnn(C)c3)c3oc4cnc(-c5cn(C)cn5)cc4c32)C[C@@H](C)O1` [Compound 1103], the response with HIV-1 was half-maximal at 56 nM (EC50). Also, the Papp A→B at 10 μM in data set [1] was found to be 18.5 ×10⁻⁶ cm/s.

The values are drawn from US9399645B2, “Inhibitors of HIV replication” (Boehringer Ingelheim International GmbH, priority 2011, dated 2016).
